# Target: T1, ERR1 (also known as ERR-α or ERR-1) (Homo sapiens, UniProt P11474)
# T1 sequence (P11474 193-421 limits assumed): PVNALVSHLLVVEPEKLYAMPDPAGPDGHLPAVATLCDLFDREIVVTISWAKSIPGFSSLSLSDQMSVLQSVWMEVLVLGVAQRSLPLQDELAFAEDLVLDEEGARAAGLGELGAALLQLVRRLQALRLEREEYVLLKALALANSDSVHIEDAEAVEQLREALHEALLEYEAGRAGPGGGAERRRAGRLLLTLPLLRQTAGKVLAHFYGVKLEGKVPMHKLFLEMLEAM
# Assay: TR-FRET assay (disruption of co-activator peptide binding to ERR1 LBD)
# Assay type: biochemical
# Settings: 6 nM 6His-ERR1LBD, 6 nM GST-SRC-2 peptide; average of 3 independent experiments
# Procedure, shortened: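 His-tagged ERR1 ligand-binding domain and GST-labelled SRC-2 peptide, each 6 nM, equilibrated at 25° C for 4-18 h in Tris pH 8/Hepes/KCl/DTT/delipidated BSA buffer. Compound-induced loss of co-activator binding read as Eu cryptate→XL665 energy transfer; values from hyperbolic curve fits averaged over 3 independent runs.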
row,Compound,EC50 [nM]
1,"O=C(O)CN1CCC[C@H]1CN1C(=O)S/C(=C\c2ccc3c(cnn3Cc3ccc(Cl)cc3C(F)(F)F)c2)C1=O [Compound 151, [(2S)-2-{[(5Z)-5-({1-[4-Chloro-2-(trifluoromethyl)benzyl]-1H-indazol-5-yl}methylidene)-2,4-dioxo-1,3-thiazolidin-3-yl]methyl}pyrrolidin-1-yl]acetic acid]",30
2,"COCCN1CCC[C@H]1CN1C(=O)S/C(=C\c2ccc3c(cnn3Cc3ccc(Cl)cc3C(F)(F)F)c2)C1=O [Compound 152, (5Z)-5-({1-[4-Chloro-2-(trifluoromethyl)benzyl]-1H-indazol-5-yl}methylidene)-3-{[(2S)-1-(2-methoxyethyl)pyrrolidin-2-yl]methyl}-1,3-thiazolidine-2,4-dione]",27
3,"CC[C@@H](CN1C(=O)S/C(=C\c2ccc3c(cnn3Cc3ccc(Cl)cc3C(F)(F)F)c2)C1=O)NS(C)(=O)=O [Compound 156, N-[(1S)-1-{[(5Z)-5-({1-[4-Chloro-2-(trifluoromethyl)benzyl]-1H-indazol-5-yl}methylidene)-2,4-dioxo-1,3-thiazolidin-3-yl]methyl}propyl] methanesulfonamide]",27
4,"CS(=O)(=O)CCN1CCC[C@H]1CN1C(=O)S/C(=C\c2ccc3c(cnn3Cc3ccc(Cl)cc3C(F)(F)F)c2)C1=O [Compound 159, (5Z)-5-({1-[4-Chloro-2-(trifluoromethyl)benzyl]-1H-indazol-5-yl}methylidene)-3-({(2S)-1-[2-(methylsulfonyl)ethyl]pyrrolidin-2-yl}methyl)-1,3-thiazolidine-2,4-dione]",87
5,"CC(C)(C)NS(=O)(=O)CN1C(=O)S/C(=C\c2ccc3c(cnn3Cc3ccc(Cl)cc3C(F)(F)F)c2)C1=O [Compound 160, N-tert-Butyl-1-[(5Z)-5-({1-[4-chloro-2-(trifluoromethyl)benzyl]-1H-indazol-5-yl}methylidene)-2,4-dioxo-1,3-thiazolidin-3-yl]methanesulfonamide]",77
6,"N[C@H](CN1C(=O)S/C(=C\c2ccc3c(cnn3Cc3ccc(Cl)cc3C(F)(F)F)c2)C1=O)c1ccccc1 [Compound 161, (5Z)-3-[(2S)-2-Amino-2-phenylethyl]-5-({1-[4-chloro-2-(trifluoromethyl)benzyl]-1H-indazol-5-yl}methylidene)-1,3-thiazolidine-2,4-dione]",73

# Stronger by EC50, values ahead:
row,EC50 [nM],Compound
1,23,"C[C@@H](CN1C(=O)S/C(=C\c2ccc3c(cnn3Cc3ccc(Cl)cc3C(F)(F)F)c2)C1=O)NS(C)(=O)=O [Compound 157, N-{(1S)-2-[(5Z)-5-({1-[4-Chloro-2-(trifluoromethyl)benzyl]-1H-indazol-5-yl}methylidene)-2,4-dioxo-1,3-thiazolidin-3-yl]-1-methylethyl} methanesulfonamide]"
2,21,"CS(=O)(=O)NCCN1C(=O)S/C(=C\c2ccc3c(cnn3Cc3ccc(Cl)cc3C(F)(F)F)c2)C1=O [Compound 158, N-{2-[(5Z)-5-({1-[4-Chloro-2-(trifluoromethyl)benzyl]-1H-indazol-5-yl}methylidene)-2,4-dioxo-1,3-thiazolidin-3-yl]ethyl}methanesulfonamide]"
3,17,"O=C1S/C(=C\c2ccc3c(cnn3Cc3ccc(Cl)cc3C(F)(F)F)c2)C(=O)N1C[C@@H]1CCCN1CCO [Compound 153, (5Z)-5-({1-[4-Chloro-2-(trifluoromethyl)benzyl]-1H-indazol-5-yl}methylidene)-3-{[(2S)-1-(2-hydroxyethyl)pyrrolidin-2-yl]methyl}-1,3-thiazolidine-2,4-dione]"
4,17,"CC[C@H](N)CN1C(=O)S/C(=C\c2ccc3c(cnn3Cc3ccc(Cl)cc3C(F)(F)F)c2)C1=O [Compound 154, 3-[(2S)-2-Aminobutyl]-(5Z)-5-({1-[4-chloro-2-(trifluoromethyl)benzyl]-1H-indazol-5-yl}methylidene)-1,3-thiazolidine-2,4-dione]"
